Reference: patent US12280212B2, “Method and apparatus for simultaneously administering oxygen, and metered dose inhaler medication by inhalation” (priority 2019, dated 2025)

Test: MDI inserted through a port into an oxygen mask without extender tube at 2-15 L/min oxygen flow, measured blood levels
Assay type: in vivo, patient
Settings: 2-15 L/min oxygen flow (wash-out)
From the text: The relatively high flow oxygen jet disperses the drug aerosol initially expressed into the mask from the MDI that was inserted into the mask, and as a result, much of the drug is dispersed around the interior of the mask and is washed out of the mask and back out through the MDI housing to ambient by the flow of oxygen, rather than being inhaled by the patient.
In this invention, an extender tube 300 (FIG. 12) is provided that can be inserted into or over the mouthpiece section 230 of an MDI body (FIGS. 8A, 8B, and 9). […] This use of the tube to channel the inhalable medication from an MDI to the mouth of the patient addresses the problem noted above that simply inserting an MDI mouthpiece into a mask with a flow of oxygen causes “wash-out” of the drug, i.e., the drug aerosol or particles (i.e., the discharge from an MDI) are dispersed within the mask and out to ambient, and as a result measured drug levels inhaled by the patient are very low. In the instant invention, measured drug levels of the MDI drug in the lung are high.

CC(C)(C)NCC(O)c1ccc(O)c(CO)c1 (stereo not shown) [albuterol HFA, albuterol]
measured blood levels of the albuterol drug: negligible
